In patent publication US9861703B2 (Jinan Platinum Pharmatech Co. Ltd., priority 2013, dated 2018):

Key:
Aminopeptidase N = molecular target: T1, Aminopeptidase N (Sus scrofa, UniProt P15145); assay: Inhibition activity against enzyme in vitro (aminopeptidase N, L-Leu-p-nitroanilide substrate); type: biochemical; settings: for IC50: 37° C., 0.5 h, absorbance 405 nm, PBS pH 7.2, read-out: IC50(μM) APN
T1 construct: purchased Sigma
T1 sequence (P15145 1-963): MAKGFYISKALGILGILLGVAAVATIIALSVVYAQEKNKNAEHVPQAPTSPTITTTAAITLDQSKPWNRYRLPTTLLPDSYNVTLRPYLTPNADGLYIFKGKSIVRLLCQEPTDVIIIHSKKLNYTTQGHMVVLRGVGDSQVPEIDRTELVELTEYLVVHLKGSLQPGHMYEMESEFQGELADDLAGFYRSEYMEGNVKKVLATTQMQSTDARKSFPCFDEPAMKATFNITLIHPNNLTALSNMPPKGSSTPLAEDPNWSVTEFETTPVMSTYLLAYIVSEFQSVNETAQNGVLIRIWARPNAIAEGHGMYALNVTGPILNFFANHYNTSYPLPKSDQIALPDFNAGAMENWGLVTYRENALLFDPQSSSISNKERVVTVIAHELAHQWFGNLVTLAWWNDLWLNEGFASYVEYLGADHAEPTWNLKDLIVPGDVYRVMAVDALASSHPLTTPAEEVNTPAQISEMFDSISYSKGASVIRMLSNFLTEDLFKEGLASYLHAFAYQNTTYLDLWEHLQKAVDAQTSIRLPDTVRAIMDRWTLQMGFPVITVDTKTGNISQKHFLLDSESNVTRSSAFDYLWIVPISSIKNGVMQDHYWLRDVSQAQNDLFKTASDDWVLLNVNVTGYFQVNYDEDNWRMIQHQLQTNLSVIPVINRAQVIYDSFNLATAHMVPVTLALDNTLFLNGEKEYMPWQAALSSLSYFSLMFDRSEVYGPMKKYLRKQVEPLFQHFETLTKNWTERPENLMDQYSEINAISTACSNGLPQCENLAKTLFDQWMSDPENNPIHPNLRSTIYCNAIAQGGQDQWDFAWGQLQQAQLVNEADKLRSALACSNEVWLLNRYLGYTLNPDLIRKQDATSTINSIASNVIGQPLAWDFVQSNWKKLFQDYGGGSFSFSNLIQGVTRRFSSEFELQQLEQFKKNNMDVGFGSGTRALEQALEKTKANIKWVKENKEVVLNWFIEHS
Procedure: Aminopeptidase N and L-Leu-p-nitroanilide as substrate were purchased from Sigma cooperation.
Preparation of Buffer Solution: 12.89 g Na2HPO4.12H2O and 2.18 g NaH2PO4.2H2O were dissolved in a 1000 mL volumetric flask, then the mixture was diluted to 1000 mL with fresh distilled water to obtain 50 mM Phosphate Buffer solution (PBS, pH 7.2), which was kept at room temperature to spare.
Aminopeptidase N was dissolved in the buffer solution to obtain 0.1 IU/mL solution.
The substrate was dissolved in DMSO to obtain a […] solution, which was kept in refrigerator to spare.
The aminopeptidase N solution 10 μL, the substrate solution 5 μL and compound with different concentration 40 μL were added into a 96-well cell plate, and then adjusted to 200 μL with phosphate buffer saline solution (pH 7.2). […] And the substrate solution 5 μL of blank group was adjusted to 200 μL with buffer solution. The mixture was incubated at 37° C. for 0.5 h, and absorbance was then determined at 405 nm wavelength Inhibitory ratio can be calculated as follows: […]
According to concentration of compound and corresponding inhibitory ratio, the IC50 value was calculated by using a fitting curve of Origin 7.5 software.

[1] = test system: human prostate cancer cell line PC-3; assay: MTT proliferation inhibition, PC-3; type: cell-based; settings: 48 h
Procedure: (§1) Human leukemia cell line K562, clear-cell ovarian carcinoma cell line ES-2, human prostate cancer cell line PC-3, human breast cancer cell line MCF-7, cell line Hela, human liver cancer cell line H7402 and human ovarian cancer cell line 3-AO were transferred into a culture flask and were cultured in a medium at 37° C. in a 5% CO2 and saturation humidity. One bottle of cells in logarithmic growth phase was picked out and was blew and beaten to be uniform with a pipette, then took some cell suspension solution to prepare blood counting plate smear to count cells under inverted microscope, and then adjusted the cell number to be 1×10^5/mL by adding some culture medium. Cells were seeded on a 96-well plate on which also drug tests performed. Blank control group, negative control group, positive control group and drug test group were established on the plate while the surrounding wells of the plate were not used (but filled with sterile PBS), wherein the blank control groups were prepared by addition of culture medium 150 μL per well, the negative control groups were prepared by addition of cell suspension solution 100 μL per well and culture medium 50 μL per well, the positive control groups were prepared by addition of cell suspension solution 100 μL per well and positive control drug solution 50 μL per well, the drug test groups were prepared by addition of cell suspension solution 100 μL per well and test compound solution 50 μL per well, and there were 5 different concentrations of drug in the positive control group and the drug test group respectively: 0.01, 0.1, 1, 10, 100 μmol·L^−1, each concentration was established with 3 parallel wells. After the drug was added, the 96-well plate was incubated for 48 h at 37° C. in a CO2 incubator of 5% CO2 and saturation humidity. Upon completion of the incubation, 20 μL MTT solution (concentration was 5 mg/mL) was added to each well and incubated for an additional 4 h, and after the 96-well plate was centrifuged at 2000 rpm for 30 min, medium of each well was suck out carefully and removed and 100 μL DMSO was added instead, followed by vibrating on a tablet shaker for 15 min to re-dissolve formazan crystals completely. OD value of each well was measured at 570 nm wavelength using an enzyme-linked immunosorbent assay reader to calculate cellular proliferation inhibitory ratio of each drug in different concentrations. And half-inhibitory concentration (IC50) was calculated using statistical software SPSS 16.0, wherein the cellular proliferation inhibitory ratio can be calculated as following equation: […]

liver cancer H22 = assay: Inhibition assay of intravenous administration against liver cancer H22 (Example 33); settings: tail intravenous injection; for Number of mice alive: 7 mice per group, two cycles; for Tumor weight / inhibitory ratio (%): sacrificed after 13 days
Procedure: Extracted the ascites from H22 ascites tumour bearing mice, washed the ascites with sterile PBS for three times and then resuspended the cells with sterile PBS (cells counts: 3.75×10^7 cells/mL), inoculated it into right oxter of Kunming mice 100 uL per mouse.
The H22 tumor-bearing mice were randomized to 4 groups (7 mice per group) after being weighted. […] The size of tumor was measured by using a vernier calliper and weight of mouse by using an electronic balance at the beginning and ending of every cycle, then calculated their mean value. The mice were sacrificed after 13 days and the tumors were taken out and weighted. Tumor volume and inhibitory ratio were calculated as the following equation (L and W referred to length and width of tumor respectively): […]

[2] = test system: human liver cancer cell line H7402; assay: MTT proliferation inhibition, H7402; type: cell-based; settings: 48 h
Procedure: as §1

[3] = test system: 7 cell lines (ES-2, K562, PC-3, MCF-7, Hela, H7402, 3-AO); assay: MTT proliferation inhibition, all 7 tumor cell lines (summary in words); type: cell-based
Procedure: as §1

CC(C)C[C@H](NC(=O)[C@@H](O)[C@H](N)Cc1ccccc1)C(=O)OCn1cc(F)c(=O)[nH]c1=O.Cl [BC-01, (S)-(5-fluoro-2,4-dioxo-3,4-dihydropyrimidinyl-1(2H))methyl-2-((2S,3R)-3-(amino)-2-hydroxy-4-phenylbutyryl)-4-methylpentanoate hydrochloride]
inhibitory activity against aminopeptidase N compared with positive control ubenimex (Aminopeptidase N): comparable activity with ubenimex | IC50 (Aminopeptidase N): 6.98 µM | EC50 [1]: 10.7 µM | Number of mice alive (liver cancer H22; 50 mg/kg/d): 7 | Body weight(g) Beginning (liver cancer H22; 50 mg/kg/d): 30.32 ± 1.57 g | Body weight(g) Ending (liver cancer H22; 50 mg/kg/d): 31.53 ± 4.71 g | Tumor weight (liver cancer H22; 50 mg/kg/d): 0.58 ± 0.12 g | inhibitory ratio (%) (liver cancer H22; 50 mg/kg/d): 57.66% | Number of mice alive (liver cancer H22; 70 mg/kg/d): 7 | Body weight(g) Beginning (liver cancer H22; 70 mg/kg/d): 30.00 ± 1.15 g | Body weight(g) Ending (liver cancer H22; 70 mg/kg/d): 31.05 ± 1.78 g | Tumor weight (liver cancer H22; 70 mg/kg/d): 0.37 ± 0.08 g | inhibitory ratio (%) (liver cancer H22; 70 mg/kg/d): 73.00% | EC50 [2]: 1.86 µM | anti-proliferation effect against all the tumor cells [3]: obvious anti-proliferation effect

CC(C)C[C@H](NC(=O)[C@@H](O)[C@H](N)Cc1ccccc1)C(=O)NCC(=O)OCn1cc(F)c(=O)[nH]c1=O.Cl [BC-02, (5-fluoro-2,4-dioxo-3,4-dihydropyrimidinyl-1(2H))methyl-2-((S)-2-((2S,3R)-3-amino-2-hydroxy-4-phenylbutanamido)-4-methylpentanamido)acetate hydrochloride]
inhibitory activity against aminopeptidase N compared with positive control ubenimex (Aminopeptidase N): much more potent than the positive control drug ubenimex | IC50 (Aminopeptidase N): 0.38 µM | EC50 [1]: 3.45 µM | Number of mice alive (liver cancer H22; 70 mg/kg/d): 7 | Body weight(g) Beginning (liver cancer H22; 70 mg/kg/d): 31.81 ± 4.99 g | Body weight(g) Ending (liver cancer H22; 70 mg/kg/d): 32.83 ± 4.64 g | Tumor weight (liver cancer H22; 70 mg/kg/d): 0.63 ± 0.01 g | inhibitory ratio (%) (liver cancer H22; 70 mg/kg/d): 54.31% | EC50 [2]: 11 µM | anti-proliferation effect against all the tumor cells [3]: obvious anti-proliferation effect
